Experimental data taken from patent publication US11850252B2, “Use of nor-ursodeoxycholic acid for reducing liver fat” (Dr. Falk Pharma GmbH, priority 2017, dated 2023).
Like-named read-outs stand apart in the source and are kept apart here.

Columns and labels:
[1] = test system: Patients with a clinical diagnosis of non-alcoholic hepatic steatosis; assay: Liver stiffness according to Fibroscan or ARFI, phase II clinical trial; format: in vivo, human
Protocol: (§1) A double-blinded, randomized, placebo-controlled phase II clinical trial was conducted as described in the following.
(§2) Patients with a clinical diagnosis of non-alcoholic hepatic steatosis were randomized to a 12-week treatment period and a 4-week follow-up. Patients were divided into three groups. The first groups received 1,500 mg Nor-UDCA per day (6 capsules with 250 mg Nor-UDCA in each capsule). The second group received 500 mg Nor-UDCA per day (2 capsules with 250 mg Nor-UDCA in each capsule and 4 capsules with 250 mg placebo in each capsule). The third group received 6 capsules with 250 mg placebo in each capsule.
A) If available, Fibroscan examinations were performed at V1 or within 4 weeks before and 1 week after V1 and at V6. For the purpose of this measurement, patients should be fasting.
Fibroscan is a non-invasive device (Echosens, France) for the detection steatosis hepatis by vibration-controlled transient elastography. It consists of a vibrator device coupled to an ultrasound system. The signal from this device allows a calculation of stiffness of scanned tissue, and thereby an assessment of the extent of disease. Results of liver elasticity are to be expressed by stiffness (kPa) and success rate (%).
During measurement, an ultrafast pulse echosequence is emitted (pulse repetition frequency of 6 kHz) during the propagation of the controlled shear wave. The acquisition lasts only 80 ms and strains induced in the liver by the propagation of the shear wave is measured using standard autocorrelation approach between successive ultrasound lines. Stiffness values were obtained in kPA.
Liver stiffness was measured using either of two probes (M-probe or XL-probe) and documented with the following respective thresholds for different stages:
Stage 0/1 (i.e. <stage 2): <7.0 kPa (threshold)
Stage 0/1 (i.e. <stage 2): <6.2 kPa (threshold)
B) If available, Acoustic radiation force impulse imaging (ARFI) examinations were performed at V1 or within 4 weeks before and 1 week after V1 and at V6. ARFI measurements were documented with the following thresholds for different stages:
Stage 0/1 (i.e. <stage 2): <1.34 m/s (threshold)

[2] = test system: Patients with a clinical diagnosis of non-alcoholic hepatic steatosis; assay: Cytokeratin 18 (M30, M65 fragments) in the course of the study; format: in vivo, human; details: for mean value of Cytokeratin 18 (M30 fragment) / mean value of Cytokeratin 18 (M65 fragment): V2 baseline
Source text: In another embodiment, the patient to be treated has a serum level of cytokeratin 18 (M65) of less than 750 U/ml, or less than 600 U/ml, or less than 500 U/ml, or less than 400 U/ml, or less than 300 U/ml or even less than 250 U/ml. The level of the M65 fragment of cytokeratin-18 can be determined by known methods, e.g. by an enzyme-linked immunosorbent assay (ELISA)
In another embodiment, the patient to be treated has a serum level of cytokeratin 18 (M30) of less than 500 U/ml, or less than 400 U/ml, or less than 300 U/ml, or less than 200 U/ml, or less than 150 U/ml. The level of the M30 fragment of cytokeratin-18 can be determined by known methods, e.g. by an ELISA.
as §1, §2

[3] = test system: acyl coenzyme A synthetase; details: in contrast to UDCA; cited from earlier work
[4] = test system: mouse models of obesity and steatosis; details: cited from earlier work
[5] = test system: experimental alcoholic steatohepatitis; details: preventive administration; compared to UDCA; Belonovskaya et al. (2013); cited from earlier work
[6] = N500 (500 mg Nor-UDCA per day), V1 screening
[7] = N500 (500 mg Nor-UDCA per day), V6-LOCF week 12
[8] = N1500 (1,500 mg Nor-UDCA per day), V1 screening
[9] = N1500 (1,500 mg Nor-UDCA per day), V6-LOCF week 12

SMILES: CC(CC(=O)O)[C@H]1CCC2[C@H]3C(CC[C@@]21C)[C@@]1(C)CCC(O)C[C@H]1C[C@@H]3O (stereo partly drawn) [Nor-UDCA, 24-nor-ursodeoxycholic acid]
- Number (%) of patients, liver stiffness Stage 0/1 [1, 6]: 62.5%
- Number (%) of patients, liver stiffness Stage = 4 [1, 6]: 12.5%
- Number (%) of patients, liver stiffness Stage ≥2 [1, 6]: 14.6%
- Number (%) of patients, liver stiffness Stage ≥3 [1, 6]: 10.4%
- Number (%) of patients, liver stiffness Stage 0/1 [1, 7]: 58.3%
- Number (%) of patients, liver stiffness Stage = 4 [1, 7]: 10.4%
- Number (%) of patients, liver stiffness Stage ≥2 [1, 7]: 22.9%
- Number (%) of patients, liver stiffness Stage ≥3 [1, 7]: 8.3%
- Number (%) of patients, liver stiffness Stage 0/1 [1, 8]: 55.6%
- Number (%) of patients, liver stiffness Stage = 4 [1, 8]: 19.4%
- Number (%) of patients, liver stiffness Stage ≥2 [1, 8]: 17.6%
- Number (%) of patients, liver stiffness Stage ≥3 [1, 8]: 8.3%
- Number (%) of patients, liver stiffness Stage 0/1 [1, 9]: 67.5%
- Number (%) of patients, liver stiffness Stage = 4 [1, 9]: 15.0%
- Number (%) of patients, liver stiffness Stage ≥2 [1, 9]: 12.5%
- Number (%) of patients, liver stiffness Stage ≥3 [1, 9]: 5.0%
- percentage of patients with stage 0/1 liver stiffness, change in the course of the study ([1]; group receiving 500 mg Nor-UDCA): decreased
- change of mean Cytokeratin 18 (M30 fragment) during the study ([2]; N500 (500 mg/day)): −34.4 U/I
- change of mean Cytokeratin 18 (M65 fragment) during the study ([2]; N500 (500 mg/day)): −106.0 U/I
- mean value of Cytokeratin 18 (M30 fragment) ([2]; N500 (500 mg/day)): 389.4 U/I
- mean value of Cytokeratin 18 (M65 fragment) ([2]; N500 (500 mg/day)): 590.2 U/I
- change of mean Cytokeratin 18 (M30 fragment) during the study ([2]; N1500 (1,500 mg/day)): −30.3 U/I
- change of mean Cytokeratin 18 (M65 fragment) during the study ([2]; N1500 (1,500 mg/day)): −80.6 U/I
- mean value of Cytokeratin 18 (M30 fragment) ([2]; N1500 (1,500 mg/day)): 333.7 U/I
- mean value of Cytokeratin 18 (M65 fragment) ([2]; N1500 (1,500 mg/day)): 519.9 U/I
- N-acyl amidation with taurine or glycine [3]: only minimal
- substrate for acyl coenzyme A synthetase [3]: poor substrate
- reduction in ALT ([4]; mouse model of obesity and steatosis, Steinacher et al. (2015)): significant reduction
- reduction in ALT ([4]; mouse models of obesity and steatosis, Steinacher et al. (2017)): considerable reduction
- preventing the accumulation of triglycerides in the liver [5]: most effective
